What was measured:
[1] = Cytotoxicity in mock-infected MT-4 cells (MTT); type: cell-based; conditions: human, 50% cytotoxic concentration
Outline: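 MT-4 cells (HTLV-1-transformed T4 line) in RPMI 1640 with 10% FCS, mock-infected alongside HIV-infected cultures. Viability read by in situ MTT reduction, OD 540 nm. CC50 is the compound concentration cutting mock-infected control absorbance by 50%.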

[2] = target: LEDGF/p75-HIV-1 integrase interaction (Human immunodeficiency virus type 1 group M subtype B (isolate HXB2) (HIV-1), UniProt P04585); test: AlphaScreen assay of LEDGF-integrase interaction inhibition; type: binding; conditions: His6-tagged integrase 300 nM, flag-LEDGF/p75 100 nM; read-out: Alphascreen IC50
Outline: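 Compounds (0.1 up to 100 μM) pre-incubated 30 min at 4° C. with 300 nM His6-integrase in pH 7.4 Tris buffer, then 100 nM flag-LEDGF/p75 added for 1 h at 4° C. Ni-chelate acceptor and anti-flag donor beads (20 μg/ml each) were incubated 1 h at 30° C. before reading AlphaScreen emission.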

[3] = test system: HIV-1 (IIIB), HIV-1 (NL4.3); test: microbe, parasite or virus in culture; type: cell-based
Outline: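 MT-4 cells infected with HIV-1 IIIB or NL4.3; protection from virus-induced cytopathic effect measured by MTT reduction, OD 540 nm. EC50 is the dose giving 50% protection; CC50 is the concentration cutting mock-infected absorbance by 50%; SI = CC50/EC50.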

CCCC(C(=O)O)c1c(C)nc2sc3c(c2c1-c1ccc(OC(F)(F)F)cc1)CCCC3 (stereo not shown) [Cpd 151, 2-[2-Methyl-4-(4-trifluoromethoxyphenyl)-5,6,7,8-tetrahydro[1]benzothieno[2,3-b]pyridin-3-yl]pentanoic acid]
CC50 [1]: 48 µM | IC50 [2]: 21.5 µM | EC50 ([3]; Human immunodeficiency virus 1, IIIB, MT4, MT-4 cells, 50% protection against HIV-induced cytopathogenic effect, MTT): 8 µM | SI ([3]; selectivity index, ratio of CC50 to EC50): 6
